Here are results for six compounds from patent US8044069B2, “Compounds as calcium channel blockers” (Abbott Laboratories, priority 2008, dated 2011).

The target of one assay is human Cav2.2 (Homo sapiens, UniProt Q00975). Description: Assessment of calcium channel activity using FLIPR (Ca2+ influx in IMR32 cells). It counts as cell-based. To be noted: IMR32 cells endogenously expressing human Cav2.2; 60 minute pre-incubation; 2 μM nifedipine; depolarized with 80 mM KCl, 5 mM CaCl2. A digest of the protocol:
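IMR32 cells were dye-loaded and pre-incubated 60 min with compound (10 μM to 0.1 nM) in 1.3 mM CaCl2 plus 2 μM nifedipine to block L-type channels. Cells were then depolarized with 80 mM KCl while Ca2+ was raised to 5 mM, and FLIPR read the influx. IC50 came from a sigmoidal fit of % inhibition versus the no-inhibitor control.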

A further assay relates to Sprague Dawley rats. The experiment in a line: Capsaicin induced secondary mechanical hyperalgesia model. It is filed as in vivo. To be noted: Rattus norvegicus, po, 1 h; 30 mg/kg p.o., 60 minutes before testing; secondary mechanical hyperalgesia 180 minutes after capsaicin; von Frey paw withdrawal threshold. How it is done:
(ii) In Vivo Data—Capsaicin Induced Secondary Mechanical Hyperalgesia Model:
Sprague Dawley rats were briefly restrained, and capsaicin was administered at 10 μg in 10 μL of vehicle by intraplantar injection into the center of the right hind paw. Secondary mechanical hyperalgesia (SMH) was measured at the heel away from the site of injection 180 minutes following capsaicin exposure. Compounds and gabapentin (positive control), were administered p.o. 60 minutes before testing (2 hours after capsaicin) or i.p. 30 minutes before testing (2.5 hours after capsaicin). SMH was measured using calibrated von Frey filaments (Stoelting, Woodale, Ill.). Following the 1 hour habituation in the testing room, rats were moved to individual plexiglass chambers that sit on top of a wire mesh to allow for access for stimulation of the plantar surface of the hind paws. Rats were allowed to acclimate to the new chambers for 15 minutes before the onset of testing. The paw withdrawal threshold was determined by increasing and decreasing stimulus intensity (force: g) and calculated using Dixon's up-down method (Chaplan, S. R.; Bach, F. W.; Pogrel, J. W.; Chung, J. M.; Yaksh, T. L.; Quantitative assessment of tactile allodynia in the rat paw. J. Neuroscience Methods 1994, 53(1), 55-63). The filaments (maximum force of 15.0 g) were held in place for 8 seconds or until there was a withdrawal response from the mechanical stimulation.

Chain of human Cav2.2 (Q00975 whole entry): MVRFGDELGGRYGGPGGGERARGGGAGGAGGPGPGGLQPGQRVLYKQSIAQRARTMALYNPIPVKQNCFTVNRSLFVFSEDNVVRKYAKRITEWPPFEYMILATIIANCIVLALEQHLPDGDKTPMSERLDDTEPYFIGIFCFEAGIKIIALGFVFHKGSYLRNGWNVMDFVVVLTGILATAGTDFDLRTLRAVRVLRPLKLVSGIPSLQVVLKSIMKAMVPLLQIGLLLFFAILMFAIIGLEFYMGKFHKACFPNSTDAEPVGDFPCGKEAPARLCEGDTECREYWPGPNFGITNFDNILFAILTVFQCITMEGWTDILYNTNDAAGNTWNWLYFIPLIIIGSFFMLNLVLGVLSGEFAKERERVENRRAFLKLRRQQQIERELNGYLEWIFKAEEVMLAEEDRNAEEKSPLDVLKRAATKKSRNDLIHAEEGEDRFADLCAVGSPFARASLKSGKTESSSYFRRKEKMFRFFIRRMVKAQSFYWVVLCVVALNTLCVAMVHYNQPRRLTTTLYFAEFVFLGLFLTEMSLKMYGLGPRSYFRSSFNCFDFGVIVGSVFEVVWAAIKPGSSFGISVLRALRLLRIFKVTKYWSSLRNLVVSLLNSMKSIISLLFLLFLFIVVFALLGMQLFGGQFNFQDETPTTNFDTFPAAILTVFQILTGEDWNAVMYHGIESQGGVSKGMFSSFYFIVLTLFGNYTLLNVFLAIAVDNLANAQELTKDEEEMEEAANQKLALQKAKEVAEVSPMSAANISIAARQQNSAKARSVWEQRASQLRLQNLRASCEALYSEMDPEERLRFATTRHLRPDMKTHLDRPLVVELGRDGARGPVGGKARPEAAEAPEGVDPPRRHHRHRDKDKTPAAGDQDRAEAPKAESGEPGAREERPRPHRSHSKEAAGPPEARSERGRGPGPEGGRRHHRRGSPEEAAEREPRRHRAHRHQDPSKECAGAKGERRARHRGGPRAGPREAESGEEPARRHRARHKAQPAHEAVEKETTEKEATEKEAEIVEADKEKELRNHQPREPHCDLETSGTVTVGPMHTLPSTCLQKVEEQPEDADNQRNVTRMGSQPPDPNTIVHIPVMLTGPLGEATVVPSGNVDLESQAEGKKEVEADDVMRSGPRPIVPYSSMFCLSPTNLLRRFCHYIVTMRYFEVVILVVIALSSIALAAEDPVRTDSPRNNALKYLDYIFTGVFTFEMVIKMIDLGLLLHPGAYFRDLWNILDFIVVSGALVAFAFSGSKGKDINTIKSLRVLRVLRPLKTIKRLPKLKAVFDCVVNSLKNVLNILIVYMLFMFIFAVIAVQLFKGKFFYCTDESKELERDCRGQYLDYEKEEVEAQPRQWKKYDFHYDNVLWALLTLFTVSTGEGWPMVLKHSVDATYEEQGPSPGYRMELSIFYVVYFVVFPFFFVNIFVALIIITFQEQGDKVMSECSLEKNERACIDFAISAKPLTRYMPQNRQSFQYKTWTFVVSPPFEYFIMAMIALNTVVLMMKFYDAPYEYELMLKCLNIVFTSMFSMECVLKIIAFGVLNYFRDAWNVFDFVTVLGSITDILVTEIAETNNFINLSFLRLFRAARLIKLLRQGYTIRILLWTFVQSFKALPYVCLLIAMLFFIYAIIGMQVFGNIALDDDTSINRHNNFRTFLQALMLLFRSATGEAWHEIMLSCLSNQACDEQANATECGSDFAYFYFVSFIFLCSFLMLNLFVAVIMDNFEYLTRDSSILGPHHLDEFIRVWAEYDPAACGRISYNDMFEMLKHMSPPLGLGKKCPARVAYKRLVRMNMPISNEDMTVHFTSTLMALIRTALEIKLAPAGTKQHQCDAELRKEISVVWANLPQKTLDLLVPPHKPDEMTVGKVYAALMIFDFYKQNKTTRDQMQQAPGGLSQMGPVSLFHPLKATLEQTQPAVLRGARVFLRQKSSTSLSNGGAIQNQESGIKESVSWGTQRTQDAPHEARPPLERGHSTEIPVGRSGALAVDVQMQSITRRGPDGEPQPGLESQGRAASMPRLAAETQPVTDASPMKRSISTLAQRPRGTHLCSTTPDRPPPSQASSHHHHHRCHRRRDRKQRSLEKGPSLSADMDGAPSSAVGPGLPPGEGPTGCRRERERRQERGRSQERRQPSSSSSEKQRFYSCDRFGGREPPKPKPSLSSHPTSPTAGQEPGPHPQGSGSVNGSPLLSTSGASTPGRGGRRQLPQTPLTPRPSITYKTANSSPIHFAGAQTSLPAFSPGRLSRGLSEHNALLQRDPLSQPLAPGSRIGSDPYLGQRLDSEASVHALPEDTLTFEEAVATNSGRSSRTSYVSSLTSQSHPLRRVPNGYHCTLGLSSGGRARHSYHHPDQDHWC
Chain of human Cav2.2 (P54289 25-951 partner limits assumed): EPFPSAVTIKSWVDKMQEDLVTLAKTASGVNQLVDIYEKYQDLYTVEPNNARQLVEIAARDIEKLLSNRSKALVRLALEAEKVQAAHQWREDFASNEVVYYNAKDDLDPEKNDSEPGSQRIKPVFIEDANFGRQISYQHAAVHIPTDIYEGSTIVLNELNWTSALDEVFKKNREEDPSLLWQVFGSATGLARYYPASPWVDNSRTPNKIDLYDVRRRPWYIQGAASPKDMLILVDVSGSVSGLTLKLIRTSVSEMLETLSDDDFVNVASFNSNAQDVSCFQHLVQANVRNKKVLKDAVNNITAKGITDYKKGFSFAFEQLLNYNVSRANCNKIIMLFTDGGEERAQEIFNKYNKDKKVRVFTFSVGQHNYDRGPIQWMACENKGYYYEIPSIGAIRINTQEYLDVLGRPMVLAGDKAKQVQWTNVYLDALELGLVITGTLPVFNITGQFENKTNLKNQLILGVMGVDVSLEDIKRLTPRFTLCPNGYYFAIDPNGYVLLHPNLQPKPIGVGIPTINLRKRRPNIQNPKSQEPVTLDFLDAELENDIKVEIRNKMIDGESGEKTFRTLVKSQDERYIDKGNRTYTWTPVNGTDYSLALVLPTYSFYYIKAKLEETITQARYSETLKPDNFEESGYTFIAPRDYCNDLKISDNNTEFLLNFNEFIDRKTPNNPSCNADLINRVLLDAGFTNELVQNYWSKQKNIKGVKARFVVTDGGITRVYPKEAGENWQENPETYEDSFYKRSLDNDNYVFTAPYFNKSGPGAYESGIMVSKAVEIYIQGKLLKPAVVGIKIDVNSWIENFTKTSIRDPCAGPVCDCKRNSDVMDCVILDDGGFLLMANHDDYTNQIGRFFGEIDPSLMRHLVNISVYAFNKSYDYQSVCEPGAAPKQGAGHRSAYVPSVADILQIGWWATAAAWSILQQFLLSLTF
Chain of human Cav2.2 (P54289 952-1103 partner limits assumed): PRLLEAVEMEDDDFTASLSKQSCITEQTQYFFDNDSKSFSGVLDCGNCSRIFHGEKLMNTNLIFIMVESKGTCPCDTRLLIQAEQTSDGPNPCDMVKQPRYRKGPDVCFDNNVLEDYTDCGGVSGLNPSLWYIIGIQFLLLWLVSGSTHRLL
Chain of human Cav2.2 (P54284 whole entry partner): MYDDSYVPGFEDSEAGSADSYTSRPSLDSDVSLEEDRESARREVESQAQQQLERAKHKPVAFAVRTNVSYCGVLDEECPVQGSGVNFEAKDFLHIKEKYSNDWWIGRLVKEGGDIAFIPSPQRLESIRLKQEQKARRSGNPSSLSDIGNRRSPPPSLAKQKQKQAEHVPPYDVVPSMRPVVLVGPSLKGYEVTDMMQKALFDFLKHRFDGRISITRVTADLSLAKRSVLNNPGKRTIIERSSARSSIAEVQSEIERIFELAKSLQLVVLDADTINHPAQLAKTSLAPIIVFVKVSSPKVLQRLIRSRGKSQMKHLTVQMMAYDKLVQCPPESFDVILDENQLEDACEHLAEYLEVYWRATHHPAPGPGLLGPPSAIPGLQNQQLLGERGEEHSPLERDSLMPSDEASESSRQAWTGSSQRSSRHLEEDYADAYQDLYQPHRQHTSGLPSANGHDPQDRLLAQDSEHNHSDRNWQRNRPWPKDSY

As a reminder, the IC50 is the concentration at which inhibition is half-maximal. A word on the inhibition in vivo: it is the change of the read-out against control, counted positive when it falls. A lower inhibition in vivo goes with little suppression. Turning to `O=C(CN1CCC(c2ccccc2)(c2ccccc2)C1=O)NC1CCN(Cc2cccc(C(F)(F)F)c2)CC1` [Example 41, 2-(2-oxo-3,3-diphenylpyrrolidin-1-yl)-N-{1-[3-(trifluoromethyl)benzyl]piperidin-4-yl}acetamide], the IC50 on human Cav2.2 is 0.78 µM. The same compound registered an inhibition in vivo at 30 mg/kg with Sprague Dawley rats of 75%.

For `O=C(CN1CCC(c2ccc(F)cc2)C1=O)N1Cc2ccc(C(F)(F)F)cc2C1` (single isomer, unassigned; (+)) [Example 264, (+)-3-(4-fluorophenyl)-1-{2-oxo-2-[5-(trifluoromethyl)-1,3-dihydro-2H-isoindol-2-yl]ethyl}pyrrolidin-2-one], the IC50 on human Cav2.2 came out at 14.1 µM. Besides, the inhibition in vivo at 30 mg/kg in the assay with Sprague Dawley rats stood at 49%.

Take `O=C(CN1CCC(c2ccccc2)(c2ccccc2)C1=O)N1CCN(C(c2ccccc2)c2ccccc2)CC1` [Example 1, 1-[2-(4-benzhydrylpiperazin-1-yl)-2-oxoethyl]-3,3-diphenylpyrrolidin-2-one]: on human Cav2.2, the IC50 was 1.1 µM. Moreover, the inhibition in vivo at 30 mg/kg in the assay with Sprague Dawley rats was found to be 61%.

As to `O=C(CN1CCC(c2ccccc2)(c2ccccc2)C1=O)N1CCN(C(c2ccccc2)c2ccccc2)C(=O)C1` [Example 28, 1-benzhydryl-4-[(2-oxo-3,3-diphenylpyrrolidin-1-yl)acetyl]piperazin-2-one], at human Cav2.2, the IC50 turned out to be 1.09 µM. The compound also returned an inhibition in vivo at 30 mg/kg in the assay with Sprague Dawley rats of 60%.

On to `O=C(CN1CCC(c2ccccc2)(c2ccccc2)C1=O)N1CCN(C(c2ccc(F)cc2)c2ccc(F)cc2)CC1` [Example 45, 1-(2-{4-[bis(4-fluorophenyl)methyl]piperazin-1-yl}-2-oxoethyl)-3,3-diphenylpyrrolidin-2-one], for which the IC50 on human Cav2.2 was 0.43 µM. Further, at 30 mg/kg the inhibition in vivo with Sprague Dawley rats was 51%.

Regarding `O=C(CN1CCCC(c2ccccc2)(c2ccccc2)C1=O)N1CCN(C(c2ccccc2)c2ccccc2)CC1` [Example 68, 1-[2-(4-benzhydrylpiperazin-1-yl)-2-oxoethyl]-3,3-diphenylpiperidin-2-one], at human Cav2.2, the IC50 is 1.38 µM. The compound further registered an inhibition in vivo at 30 mg/kg with Sprague Dawley rats of 71%.
